# In patent US11566007B2, “Ras inhibitors” (Revolution Medicines, Inc., priority 2019, dated 2023):
# Where two headings read alike, the source gives them in different places.
# Assays:
# KRAS Q61H = KRAS Q61H (Homo sapiens (Human), UniProt P01116+P62937, Q61H); assay: Ras-Raf (BRAF RBD) disruption / FRET / MOA assay, KRAS Q61H; type: biochemical
# Protocol: (§1) The purpose of this biochemical assay is to measure the ability of test compounds to facilitate ternary complex formation between a nucleotide-loaded Ras isoform and cyclophilin A; the resulting ternary complex disrupts binding to a BRAF^RBD construct, inhibiting Ras signaling through a RAF effector.
# (§2) […]. Compound is present in plate wells as a 10-point 3-fold dilution series starting at a final concentration of 30 μM. After incubation at 25° C. for 3 hours, a mixture of Anti-His Eu-W1024 and anti-GST allophycocyanin is then added to assay sample wells at final concentrations of 10 nM and 50 nM, respectively, and the reaction incubated for an additional 1.5 hours. […] Compounds that facilitate disruption of a Ras:RAF complex are identified as those eliciting a decrease in the TR-FRET ratio relative to DMSO control wells.
# (§3) Note—The following protocol describes a procedure for monitoring disruption of K-Ras G12C (GMP-PNP) binding to BRAF^RBD by a compound of the invention. This protocol may also be executed substituting other Ras proteins or nucleotides.
# (§4) The purpose of this biochemical assay was to measure the ability of test compounds to facilitate ternary complex formation between a nucleotide-loaded K-Ras isoform and Cyclophilin A; the resulting ternary complex disrupts binding to a BRAF^RBD construct, inhibiting K-Ras signaling through a RAF effector. Data is reported as IC50 values.
# (§5) […]. Compound was present in plate wells as a 10-point 3-fold dilution series starting at a final concentration of 30 μM. After incubation at 25° C. for 3 hours, a mixture of Anti-His Eu-W1024 and anti-GST allophycocyanin was then added to assay sample wells at final concentrations of 10 nM and 50 nM, respectively, and the reaction incubated for an additional 1.5 hours. […] Compounds that facilitate disruption of a K-Ras:RAF complex were identified as those eliciting a decrease in the TR-FRET ratio relative to DMSO control wells.
# KRAS G12D = KRAS G12D (Homo sapiens (Human), UniProt P01116+P62937, G12D); assay: Ras-Raf (BRAF RBD) disruption / FRET / MOA assay, KRAS G12D; type: biochemical
# Procedure, shortened: (§6)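 Compounds, top final concentration 30 μM in 10-point 3-fold series, incubated 3 hours at 25° C with nucleotide-loaded Ras, cyclophilin A and BRAF RBD.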
# NCI-H358 (K-Ras G12C) = assay: CellTiter-Glo cell viability assay, NCI-H358; type: cell-based, human; settings: NCI-H358, 5-day treatment, class symbols, read-out: Additional H358 Cell Viability assay data (K-Ras G12C, IC50)
# Procedure, shortened: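 Compounds were dispensed directly onto K-Ras mutant cells and incubated until day 5, then plates were equilibrated to room temperature for about 30 minutes before CellTiter-Glo luminescence. Signals were normalized as (sample/average DMSO)*100 and fitted by four-parameter logistic fit.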
# [1] = tested on: NCI-H358 cells (K-Ras G12C); assay: Potency assay: pERK in NCI-H358 cells; type: cell-based, human; settings: H358 KRAS G12C, read-out: pERK EC50
# Procedure, shortened: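 Inhibition of cellular pERK after a 4 h treatment, detected by AlphaLISA or In-Cell Western. IC50 from a four-parameter concentration-response fit.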
# KRAS G12S = KRAS G12S (Homo sapiens (Human), UniProt P01116+P62937, G12S); assay: Ras-Raf (BRAF RBD) disruption / FRET / MOA assay, KRAS G12S; type: biochemical
# Procedure, shortened: as §6
# KRAS G12V = KRAS G12V (Homo sapiens (Human), UniProt P01116+P62937, G12V); assay: Ras-Raf (BRAF RBD) disruption / FRET / MOA assay, KRAS G12V; type: biochemical; settings: read-out: IC50* KRAS G12V FRET data
# Procedure, shortened: as §6
# NRAS Q61K = NRAS Q61K (Homo sapiens (Human), UniProt P01111+P62937, Q61K); assay: Ras-Raf (BRAF RBD) disruption / FRET / MOA assay, NRAS Q61K; type: biochemical; settings: NRAS Q61K; Ras-Raf disruption/FRET/MOA assay; read-out: IC50* NRAS Q61K FRET data
# Protocol: as §1, §2, §3, §4, §5
# NRAS WT = NRAS WT (Homo sapiens (Human), UniProt P01111+P62937); assay: Ras-Raf (BRAF RBD) disruption / FRET / MOA assay, NRAS WT; type: biochemical; settings: read-out: IC50* NRAS WT FRET data
# Protocol: as §1, §2, §3, §4, §5
# NRAS G12C = NRAS G12C (Homo sapiens (Human), UniProt P01111+P62937, G12C); assay: Ras-Raf (BRAF RBD) disruption / FRET / MOA assay, NRAS G12C; type: biochemical; settings: read-out: IC50* NRAS G12C FRET data
# Procedure, shortened: as §6
# KRAS WT = KRAS WT (Homo sapiens (Human), UniProt P01116+P62937); assay: Ras-Raf (BRAF RBD) disruption / FRET / MOA assay, KRAS WT; type: biochemical; settings: read-out: IC50* KRAS WT FRET data
# Procedure, shortened: as §6
# K-Ras G13C = K-Ras G13C (Homo sapiens (Human), UniProt P01116+P62937, G13C); assay: Ras-Raf (BRAF RBD) disruption / FRET / MOA assay, KRAS G13C; type: biochemical; settings: KRAS G13C; Ras-Raf disruption/FRET/MOA assay; read-out: IC50* KRAS G13C FRET data
# Procedure, shortened: as §6
# NRAS Q61R = NRAS Q61R (Homo sapiens (Human), UniProt P01111+P62937, Q61R); assay: Ras-Raf (BRAF RBD) disruption / FRET / MOA assay, NRAS Q61R; type: biochemical; settings: NRAS Q61R; Ras-Raf disruption/FRET/MOA assay; read-out: IC50* NRAS Q61R FRET data
# Protocol: as §1, §2, §3, §4, §5
# KRAS G13D = KRAS G13D (Homo sapiens (Human), UniProt P01116+P62937, G13D); assay: Ras-Raf (BRAF RBD) disruption / FRET / MOA assay, KRAS G13D; type: biochemical; settings: read-out: IC50* KRAS G13D FRET data
# Procedure, shortened: as §6
# K-Ras G12C = K-Ras G12C (Homo sapiens (Human), UniProt P01116+P62937, G12C); assay: Ras-Raf (BRAF RBD) disruption / FRET / MOA assay, KRAS G12C; type: biochemical; settings: KRAS G12C; Ras-Raf disruption/FRET/MOA assay; read-out: IC50* KRAS G12C FRET data
# Procedure, shortened: as §6
# [2] = Ras-Raf disruption/FRET/MOA assay; class symbols; read-out: KRAS Q61H FRET data IC50
# [3] = Ras-Raf disruption/FRET/MOA assay; class symbols; read-out: KRAS G12D FRET data IC50
# [4] = Ras-Raf disruption/FRET/MOA assay; class symbols; read-out: KRAS G12S FRET data IC50
# Chain of KRAS WT (P01116-2 other isoform, or with tags, fused parts or gaps): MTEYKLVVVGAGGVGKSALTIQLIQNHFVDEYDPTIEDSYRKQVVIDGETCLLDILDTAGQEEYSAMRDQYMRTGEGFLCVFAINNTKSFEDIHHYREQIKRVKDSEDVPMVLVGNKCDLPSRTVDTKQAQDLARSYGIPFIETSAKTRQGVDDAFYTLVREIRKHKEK
# Chain of KRAS WT (P62937 whole entry): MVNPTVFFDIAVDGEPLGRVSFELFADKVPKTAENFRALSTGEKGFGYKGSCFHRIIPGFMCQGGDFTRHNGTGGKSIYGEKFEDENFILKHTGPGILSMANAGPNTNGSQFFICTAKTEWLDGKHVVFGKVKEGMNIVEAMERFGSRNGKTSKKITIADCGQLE
# Chain of KRAS G12S (P01116-2 other isoform, or with tags, fused parts or gaps G12S): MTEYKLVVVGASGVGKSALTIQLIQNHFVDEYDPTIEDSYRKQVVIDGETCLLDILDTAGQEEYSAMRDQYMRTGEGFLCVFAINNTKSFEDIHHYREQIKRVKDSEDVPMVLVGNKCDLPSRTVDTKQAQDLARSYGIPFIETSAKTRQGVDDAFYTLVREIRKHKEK
# Chain of KRAS G12S (P62937 whole entry): as the sequence (P62937 whole entry) above
# Chain of KRAS G12V (P01116-2 other isoform, or with tags, fused parts or gaps G12V): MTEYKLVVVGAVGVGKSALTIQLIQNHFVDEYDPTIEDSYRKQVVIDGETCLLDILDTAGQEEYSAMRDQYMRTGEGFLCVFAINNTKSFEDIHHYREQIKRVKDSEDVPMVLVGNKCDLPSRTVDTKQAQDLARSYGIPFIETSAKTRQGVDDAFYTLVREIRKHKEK
# Chain of KRAS G12V (P62937 whole entry): as the sequence (P62937 whole entry) above
# Chain of KRAS G12D (P01116-2 other isoform, or with tags, fused parts or gaps G12D): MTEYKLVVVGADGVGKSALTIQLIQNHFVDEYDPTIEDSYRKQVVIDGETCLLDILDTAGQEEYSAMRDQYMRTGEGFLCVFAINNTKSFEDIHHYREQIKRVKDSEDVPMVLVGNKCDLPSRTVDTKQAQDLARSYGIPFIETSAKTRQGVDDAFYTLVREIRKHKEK
# Chain of KRAS G12D (P62937 whole entry): as the sequence (P62937 whole entry) above
# Chain of KRAS Q61H (P01116-2 other isoform, or with tags, fused parts or gaps Q61H): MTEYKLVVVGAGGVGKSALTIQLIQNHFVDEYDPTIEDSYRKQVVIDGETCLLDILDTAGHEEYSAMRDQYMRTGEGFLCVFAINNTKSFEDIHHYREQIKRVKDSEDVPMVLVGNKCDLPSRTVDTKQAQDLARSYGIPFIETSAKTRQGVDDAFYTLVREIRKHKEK
# Chain of KRAS Q61H (P62937 whole entry, canonical isoform): as the sequence (P62937 whole entry) above
# Chain of K-Ras G13C (P01116-2 other isoform, or with tags, fused parts or gaps G13C): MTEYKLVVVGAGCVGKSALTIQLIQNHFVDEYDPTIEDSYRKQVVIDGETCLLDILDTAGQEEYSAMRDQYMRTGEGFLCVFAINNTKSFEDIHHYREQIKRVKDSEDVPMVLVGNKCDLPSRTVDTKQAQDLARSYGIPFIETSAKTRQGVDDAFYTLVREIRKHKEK
# Chain of K-Ras G13C (P62937 whole entry): as the sequence (P62937 whole entry) above
# Chain of NRAS WT (P01111 whole entry): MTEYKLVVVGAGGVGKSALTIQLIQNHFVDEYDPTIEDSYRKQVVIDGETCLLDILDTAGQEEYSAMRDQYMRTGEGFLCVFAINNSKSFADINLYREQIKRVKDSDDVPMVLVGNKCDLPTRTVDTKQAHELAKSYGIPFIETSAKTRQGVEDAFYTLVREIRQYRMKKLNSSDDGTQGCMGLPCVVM
# Chain of NRAS WT (P62937 whole entry): as the sequence (P62937 whole entry) above
# Chain of NRAS Q61R (P01111 whole entry Q61R): as the sequence (P01111 whole entry) above, with Q61R counted along it
# Chain of NRAS Q61R (P62937 whole entry): as the sequence (P62937 whole entry) above
# Chain of NRAS Q61K (P01111 whole entry Q61K): as the sequence (P01111 whole entry) above, with Q61K counted along it
# Chain of NRAS Q61K (P62937 whole entry): as the sequence (P62937 whole entry) above
# Chain of NRAS G12C (P01111 whole entry G12C): as the sequence (P01111 whole entry) above, with G12C counted along it
# Chain of NRAS G12C (P62937 whole entry): as the sequence (P62937 whole entry) above
# Chain of K-Ras G12C (P01116-2 other isoform, or with tags, fused parts or gaps G12C): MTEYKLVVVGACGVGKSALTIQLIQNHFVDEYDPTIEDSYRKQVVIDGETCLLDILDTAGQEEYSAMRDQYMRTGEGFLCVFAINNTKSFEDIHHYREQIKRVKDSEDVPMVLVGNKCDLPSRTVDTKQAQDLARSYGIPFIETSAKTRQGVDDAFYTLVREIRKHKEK
# Chain of K-Ras G12C (P62937 whole entry): as the sequence (P62937 whole entry) above
# Chain of KRAS G13D (P01116-2 other isoform, or with tags, fused parts or gaps G13D): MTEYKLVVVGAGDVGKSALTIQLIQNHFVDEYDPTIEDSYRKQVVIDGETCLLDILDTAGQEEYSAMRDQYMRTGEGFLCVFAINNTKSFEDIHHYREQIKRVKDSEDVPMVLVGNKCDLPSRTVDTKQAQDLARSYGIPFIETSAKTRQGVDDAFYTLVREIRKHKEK
# Chain of KRAS G13D (P62937 whole entry): as the sequence (P62937 whole entry) above
Structure (SMILES),IC50 (KRAS Q61H; [2]),IC50 (KRAS G12D; [3]),IC50 (NCI-H358 (K-Ras G12C)),EC50 [1],IC50 (KRAS G12S; [4]),further results
"C=CC(=O)N1CC[C@H](C(=O)N(C)[C@H](C(=O)N[C@H]2Cc3cc(sn3)-c3ccc4c(c3)c(c(-c3cccnc3[C@H](C)OC)n4CC)CC(C)(C)COC(=O)[C@@H]3CCCN(N3)C2=O)C(C)C)C1 (atropisomer, axis not shown) [Example A277]",–,–,–,–,–,"IC50 (KRAS Q61H; read-out: KRAS Q61H FRET data IC50; Ras-Raf disruption/FRET/MOA assay; class symbols): 100 to 1000 nM; IC50 (KRAS G12D; read-out: KRAS G12D FRET data IC50; Ras-Raf disruption/FRET/MOA assay; class symbols): > 10000 nM; IC50 (NCI-H358 (K-Ras G12C); Homo sapiens, NCI-H358, 120 h): 100 to 1000 nM; EC50 ([1]; Homo sapiens, NCI-H358): < 5000 nM; IC50 (KRAS G12S; read-out: KRAS G12S FRET data IC50; Ras-Raf disruption/FRET/MOA assay; class symbols): 1000 to 10000 nM"
C=CC(=O)N1CCOC2(CCN(C(=O)N(C)[C@H](C(=O)N[C@H]3CN4CCC=C(C4)c4ccc5c(c4)c(c(-c4cccnc4[C@H](C)OC)n5CC)CC(C)(C)COC(=O)[C@@H]4CCCN(N4)C3=O)C(C)C)CC2)C1 [Example A563],1000 to 10000 nM,> 10000 nM,100 to 1000 nM,< 5000 nM,1000 to 10000 nM,–
"C=CC(=O)N1CC[C@H](C(=O)N(C)[C@H](C(=O)N[C@H]2Cc3cc(CF)cc(c3)-c3ccc4c(c3)c(c(-c3cccnc3[C@H](C)OC)n4CC)CC(C)(C)COC(=O)[C@@H]3CCCN(N3)C2=O)C(C)C)C1 (atropisomer, axis not shown) [Example A505]",100 to 1000 nM,1000 to 10000 nM,< 10 nM,< 5000 nM,1000 to 10000 nM,–
"C=CC(=O)N(C)[C@H]1CCN(C(=O)N(C)[C@H](C(=O)N[C@H]2Cc3nc(cs3)-c3ccc4c(c3)c(c(-c3cccnc3[C@H](C)OC)n4CC)CC(C)(C)COC(=O)[C@@H]3CCCN(N3)C2=O)C(C)C)C1 (atropisomer, axis not shown) [Example A384]",–,100 to 1000 nM,–,–,100 to 1000 nM,"IC50 (KRAS G12V): 100 to 1000 nM; IC50 (NRAS Q61K): 10 to 100 nM; IC50 (NRAS WT): 100 to 1000 nM; IC50 (NRAS G12C): 10 to 100 nM; IC50 (KRAS WT): 100 to 1000 nM; IC50 (K-Ras G13C): 100 to 1000 nM; IC50 (NRAS Q61R): 100 to 1000 nM; IC50 (NCI-H358 (K-Ras G12C); Homo sapiens, NCI-H358, 120 h): < 10 nM; EC50 ([1]; Homo sapiens, NCI-H358): < 5000 nM"
"CCn1c(-c2cccnc2[C@H](C)OC)c2c3cc(ccc31)N1CCC[C@@H](C[C@H](NC(=O)[C@H](C(C)C)N(C)C(=O)C3(F)CCN(C(=O)C#CC(C)(C)N(C)C)CC3)C(=O)N3CCC[C@H](N3)C(=O)OCC(C)(C)C2)C1 (atropisomer, axis not shown) [Example A616]",1000 to 10000 nM,> 10000 nM,< 10 nM,< 5000 nM,1000 to 10000 nM,IC50 (KRAS G12V): 1000 to 10000 nM; IC50 (KRAS G13D): 1000 to 10000 nM; IC50 (NRAS WT): 1000 to 10000 nM; IC50 (NRAS G12C): < 10 nM; IC50 (KRAS WT): 1000 to 10000 nM; IC50 (K-Ras G13C): 1000 to 10000 nM
"C=CC(=O)N1CC[C@H](C(=O)N(C)[C@H](C(=O)N[C@H]2Cc3cc(CF)cc(c3)-c3ccc4c(c3)c(c(-c3cccnc3[C@H](C)OC)n4CC)CC(C)(C)COC(=O)[C@@H]3CCCN(N3)C2=O)C(C)C)C1 (atropisomer, axis not shown) [Example A504]",100 to 1000 nM,1000 to 10000 nM,< 10 nM,< 5000 nM,1000 to 10000 nM,–
"C=CC(=O)N1CCN(C(=O)N(C)[C@H](C(=O)N[C@H]2Cc3nc(cs3)-c3ccc4c(c3)c(c(-c3cccnc3[C@H](C)OC)n4CC)CC(C)(C)COC(=O)[C@@H]3CCCN(N3)C2=O)C(C)C)CC1 (atropisomer, axis not shown) [Example A492]",10 to 100 nM,100 to 1000 nM,< 10 nM,< 5000 nM,10 to 100 nM,–
C=CC(=O)N1CC[C@H](C(=O)N(C)[C@H](C(=O)N[C@H]2Cc3cc(O)cc(c3)-c3ccc4c(c3)c(c(-c3ccc(N5CCN(C)CC5)nc3)n4CC)CC(C)(C)COC(=O)[C@@H]3CCCN(N3)C2=O)C(C)C)C1 [Example A089],100 to 1000 nM,> 10000 nM,–,–,1000 to 10000 nM,IC50 (KRAS G12V): 1000 to 10000 nM; IC50 (NRAS Q61K): 1000 to 10000 nM; IC50 (NRAS WT): 1000 to 10000 nM; IC50 (KRAS WT): 1000 to 10000 nM; IC50 (K-Ras G13C): 1000 to 10000 nM; IC50 (NRAS Q61R): 1000 to 10000 nM; IC50 (K-Ras G12C): 100 to 1000 nM
"C=CC(=O)N1CCN(C(=O)N(C)[C@H](C(=O)N[C@H]2Cc3nc(cs3)-c3ccc4c(c3)c(c(-c3cccnc3[C@H](C)OC)n4CC)CC(C)(C)COC(=O)[C@@H]3CCCN(N3)C2=O)C(C)C)CC1 (atropisomer, axis not shown) [Example A493]",10 to 100 nM,100 to 1000 nM,< 10 nM,< 5000 nM,10 to 100 nM,–
C=CC(=O)N1CC[C@H](C(=O)N(C)[C@H](C(=O)N[C@H]2Cc3cc(O)cc(c3)-c3ccc4c(c3)c(c(-c3cnn5c3[C@@H](OC)CCC5)n4CC)CC(C)(C)COC(=O)[C@@H]3CCCN(N3)C2=O)C(C)C)C1 [Example A333],10 to 100 nM,100 to 1000 nM,< 10 nM,< 5000 nM,10 to 100 nM,–
C=CC(=O)N1CCN(C(=O)N(C)[C@H](C(=O)N[C@H]2Cc3cc(O)cc(c3)-c3ccc4c(c3)c(c(-c3cccnc3[C@H](C)OC)n4CC)CC(C)(C)COC(=O)[C@@H]3CCCN(N3)C2=O)C(C)C)CC1 [Example A338],10 to 100 nM,100 to 1000 nM,10 to 100 nM,< 5000 nM,10 to 100 nM,–
